Molecular target: T1, human LPAR1 (Homo sapiens, UniProt Q92633)
T1 construct: host or cells: CHO-K1
Assay: LPAR1 intracellular calcium mobilization assay (antagonist mode)
Type: cell-based
Conditions: CHO-K1 EDG2 cells expressing human LPAR1; 60 min pre-incubation with compound, then LPA 18:2 at EC80 (100 nM); FLIPR calcium signal
Protocol: In vitro LPAR1 activity was measured in an intracellular calcium mobilization assay.
CHO-K1 EDG2 cells (DiscoverX cat #93-0644C2) expressing human LPAR1 (NM_001401.3) were seeded in a total volume of 25 μL of Dulbecco's Modification of Eagle's Medium (DMEM) with 10% Fetal Bovine Serum, 1× PenStrepGlutamine, 300 ug/ml Hygromycin, and 800 ug/ml G418 into 384-well tissue culture plate (Grenier #781091) at 15,000 cells/well and incubated at 37° C. overnight. Prior to testing, 25 μL Calcium Loading Dye Component A (FLIPR Calcium 6 Assay Kit Molecular Device #R8190) and 2.5 mM Probenecid (Invitrogen #P36400, prepared fresh) in Hank's Balanced Salt Solution (Corning #21-023-CV), 20 mM HEPES (Corning #25-060-CI), 0.1% Bovine Serum Albumin (Sigma-Aldrich #A7906-500G) was add to the cells for 60 minutes at 37° C.
Agonist dose curves of LPA 18:2 (Avanti Polar Lipids cat #857138, 0.5 nM to 10 μM) were recorded to determine the LPA 18:2 EC80 for subsequent antagonist assays. For agonist dose curves, cells were removed from the incubator 2 hours after dye loading and transferred to the FLIPR Tetra instrument (Molecular Devices, San Jose, CA). Calcium mobilization was monitored for 5 min and 10 μL 6× LPA in HBSS/20 mM Hepes/0.1% bovine serum albumin (BSA) was added to the cells 5 seconds into the assay.
To determine the LPAR1 antagonist activity of test compounds, cells were pre-incubated with test compound at a dose range of 0.5 nM to 10 μM, followed by LPA at EC80 concentration (100 nM). After dye loading, cells were removed from the incubator and 0.3 μL of 200× antagonist was added. Cells were incubated for 60 minutes at 37° C. Antagonist activity was measured on a FLIPR Tetra. Calcium mobilization was monitored for 3.5 minutes and 10 μL 6× EC80 LPA in HBSS, 20 mM HEPES, and 0.1% BSA was added to the cells 5 seconds into the assay. Signal amplitude (Maximum minus minimum) values were plotted against log10 of antagonist concentration using Dose Response Tool (Gilead Sciences Inc.) to determine EC50.
To assess the antagonistic potential of exemplified compounds EC50 values were determined for Compounds 1 to 32 in the LPAR1 calcium mobilization assay. The compound numbers correspond to the compound numbers in Examples 1 to 33.

T1 sequence (Q92633 whole entry): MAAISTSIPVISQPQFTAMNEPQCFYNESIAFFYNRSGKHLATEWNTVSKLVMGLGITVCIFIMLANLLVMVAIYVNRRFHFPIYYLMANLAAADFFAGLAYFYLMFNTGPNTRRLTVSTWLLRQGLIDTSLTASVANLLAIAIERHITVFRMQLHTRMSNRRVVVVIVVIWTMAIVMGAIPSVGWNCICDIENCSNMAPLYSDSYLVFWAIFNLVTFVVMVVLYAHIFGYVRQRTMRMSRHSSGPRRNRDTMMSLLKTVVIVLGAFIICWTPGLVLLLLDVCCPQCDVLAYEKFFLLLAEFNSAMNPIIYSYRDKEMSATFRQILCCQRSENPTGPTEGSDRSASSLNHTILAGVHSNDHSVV

| Compound | EC50 [nM] |
| --- | --- |
| C[C@@H](OC(=O)Nc1c(-c2cc(F)c3c(c2)CCC(=O)N3)nnn1C)c1cccnc1Cl [Compound 29, (R)-1-(2-chloropyridin-3-yl)ethyl (4-(8-fluoro-2-oxo-1,2,3,4-tetrahydroquinolin-6-yl)-1-methyl-1H-1,2,3-triazol-5-yl)carbamate] | 5 |
| C[C@@H](OC(=O)Nc1c(-c2ccc3c(n2)OC(C(F)(F)F)C(=O)N3)nnn1C)c1cc(F)cnc1Cl (stereo partly drawn) [Compound 30, (R)-1-(2-chloro-5-fluoropyridin-3-yl)ethyl (1-methyl-4-(2-oxo-3-(trifluoromethyl)-2,3-dihydro-1H-pyrido[2,3-b][1,4]oxazin-6-yl)-1H-1,2,3-triazol-5-yl)carbamate] | < 5 |
| CC1Oc2nc(-c3nnn(C)c3NC(=O)O[C@H](C)c3cc(F)cnc3Cl)ccc2NC1=O (stereo partly drawn) [Compound 31, (R)-1-(2-chloro-5-fluoropyridin-3-yl)ethyl (1-methyl-4-(3-methyl-2-oxo-2,3-dihydro-1H-pyrido[2,3-b][1,4]oxazin-6-yl)-1H-1,2,3-triazol-5-yl)carbamate] | < 5 |
| CC1Oc2nc(-c3nnn(C)c3NC(=O)O[C@H](C)c3cc(F)cnc3F)ccc2NC1=O (stereo partly drawn) [Compound 32, (R)-1-(2,5-difluoropyridin-3-yl)ethyl (1-methyl-4-(3-methyl-2-oxo-2,3-dihydro-1H-pyrido[2,3-b][1,4]oxazin-6-yl)-1H-1,2,3-triazol-5-yl)carbamate] | 3780 |

Source: patent US12139474B2, “LPA receptor antagonists and uses thereof” (Gilead Sciences, Inc., priority 2020, dated 2024)
